Assay results reported in PMC4116439 (ChemMedChem, 2014).
Changes are numbered by the printed parent chain.

How the values were obtained:
[1] = molecular target: T1, human M4 (Homo sapiens, UniProt P08173); details: read-out: hM4 IC50; printed as hM1-M4; cited from earlier work
T1 sequence (P08173 1-479): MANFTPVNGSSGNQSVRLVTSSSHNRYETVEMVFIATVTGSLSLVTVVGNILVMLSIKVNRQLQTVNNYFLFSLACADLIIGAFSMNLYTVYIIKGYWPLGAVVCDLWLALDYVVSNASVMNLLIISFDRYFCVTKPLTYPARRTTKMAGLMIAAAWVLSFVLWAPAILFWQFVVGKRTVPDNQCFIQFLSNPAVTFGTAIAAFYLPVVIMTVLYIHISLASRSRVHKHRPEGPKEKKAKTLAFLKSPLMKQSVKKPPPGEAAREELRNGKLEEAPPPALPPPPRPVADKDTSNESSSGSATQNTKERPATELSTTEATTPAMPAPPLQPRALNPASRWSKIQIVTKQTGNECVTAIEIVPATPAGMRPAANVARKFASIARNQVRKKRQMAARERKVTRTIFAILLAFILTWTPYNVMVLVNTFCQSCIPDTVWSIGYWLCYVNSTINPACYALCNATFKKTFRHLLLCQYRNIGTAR

[2] = molecular target: T2, human M1 (Homo sapiens, UniProt P11229); details: read-out: hM1 IC50; printed as hM1-M4; cited from earlier work
T2 sequence (P11229 1-460): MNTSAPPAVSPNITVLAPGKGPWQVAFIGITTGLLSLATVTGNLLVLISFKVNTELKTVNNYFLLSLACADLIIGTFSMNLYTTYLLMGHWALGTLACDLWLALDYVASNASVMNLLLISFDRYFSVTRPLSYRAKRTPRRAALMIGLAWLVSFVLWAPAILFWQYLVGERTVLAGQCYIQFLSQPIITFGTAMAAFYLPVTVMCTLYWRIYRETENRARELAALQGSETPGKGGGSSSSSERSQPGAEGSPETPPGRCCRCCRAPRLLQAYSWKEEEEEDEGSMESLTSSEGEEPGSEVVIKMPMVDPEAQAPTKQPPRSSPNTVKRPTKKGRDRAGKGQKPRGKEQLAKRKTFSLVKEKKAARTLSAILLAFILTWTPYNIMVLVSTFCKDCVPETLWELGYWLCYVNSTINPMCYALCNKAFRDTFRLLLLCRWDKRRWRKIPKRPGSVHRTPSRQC

[3] = molecular target: human M3 (Homo sapiens, UniProt P20309); details: read-out: hM3 IC50; printed as hM1-M4; cited from earlier work
[4] = molecular target: T3, human M2 (Homo sapiens, UniProt P08172); details: read-out: hM2 IC50; printed as hM1-M4; cited from earlier work
T3 sequence (P08172 1-466): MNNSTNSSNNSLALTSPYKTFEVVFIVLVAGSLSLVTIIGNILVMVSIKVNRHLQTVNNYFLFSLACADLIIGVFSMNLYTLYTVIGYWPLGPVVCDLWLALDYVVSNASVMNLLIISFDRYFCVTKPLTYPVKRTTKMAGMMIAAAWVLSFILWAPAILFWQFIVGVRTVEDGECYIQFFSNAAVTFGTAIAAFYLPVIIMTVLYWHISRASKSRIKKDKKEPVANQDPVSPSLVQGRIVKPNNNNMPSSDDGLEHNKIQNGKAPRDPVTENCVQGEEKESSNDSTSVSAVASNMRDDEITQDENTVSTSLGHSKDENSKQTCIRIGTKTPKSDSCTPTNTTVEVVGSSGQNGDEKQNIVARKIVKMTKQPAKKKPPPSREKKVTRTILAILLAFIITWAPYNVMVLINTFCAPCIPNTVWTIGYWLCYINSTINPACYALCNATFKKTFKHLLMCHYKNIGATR

[5] = molecular target: T4, rM1 (Rattus norvegicus, UniProt P08482); experiment: rat M1 functional assay; type: cell-based; details: read-out: rM1 IC50, printed as rM1-rM4
T4 sequence (P08482 1-460): T2 sequence (P11229 1-460) with A5V, T254S, P309S, R320K, A337G, I413V

[6] = test system: 68 GPCRs, ion channels and transporters; experiment: Eurofins radioligand binding panel; details: 10 μM, 68 targets
[7] = molecular target: rM3 (Rattus norvegicus, UniProt P08483); experiment: rat M3 functional assay; type: cell-based; details: read-out: rM3 IC50, printed as rM1-rM4
[8] = molecular target: T5, rM4 (Rattus norvegicus, UniProt P08485); experiment: rat M4 functional assay; type: cell-based; details: read-out: rM4 IC50, printed as rM1-rM4
T5 sequence (P08485 1-478): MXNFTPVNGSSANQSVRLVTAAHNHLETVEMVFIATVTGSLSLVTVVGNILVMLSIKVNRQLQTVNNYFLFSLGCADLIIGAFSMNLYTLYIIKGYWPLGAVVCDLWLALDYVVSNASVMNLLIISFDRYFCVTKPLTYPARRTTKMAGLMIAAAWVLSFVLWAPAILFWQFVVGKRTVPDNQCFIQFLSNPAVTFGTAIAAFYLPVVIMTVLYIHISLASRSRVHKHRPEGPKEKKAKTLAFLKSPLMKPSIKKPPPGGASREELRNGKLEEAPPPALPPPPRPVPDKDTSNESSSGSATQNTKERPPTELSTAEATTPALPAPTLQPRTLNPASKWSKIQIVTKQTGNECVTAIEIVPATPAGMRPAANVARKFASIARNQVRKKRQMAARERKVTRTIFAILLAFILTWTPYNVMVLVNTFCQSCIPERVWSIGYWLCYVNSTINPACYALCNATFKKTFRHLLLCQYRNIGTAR

[9] = molecular target: T6, rM2 (Rattus norvegicus, UniProt P10980); experiment: rat M2 functional assay; type: cell-based; details: read-out: rM2 IC50, printed as rM1-rM4
T6 sequence (P10980 1-466): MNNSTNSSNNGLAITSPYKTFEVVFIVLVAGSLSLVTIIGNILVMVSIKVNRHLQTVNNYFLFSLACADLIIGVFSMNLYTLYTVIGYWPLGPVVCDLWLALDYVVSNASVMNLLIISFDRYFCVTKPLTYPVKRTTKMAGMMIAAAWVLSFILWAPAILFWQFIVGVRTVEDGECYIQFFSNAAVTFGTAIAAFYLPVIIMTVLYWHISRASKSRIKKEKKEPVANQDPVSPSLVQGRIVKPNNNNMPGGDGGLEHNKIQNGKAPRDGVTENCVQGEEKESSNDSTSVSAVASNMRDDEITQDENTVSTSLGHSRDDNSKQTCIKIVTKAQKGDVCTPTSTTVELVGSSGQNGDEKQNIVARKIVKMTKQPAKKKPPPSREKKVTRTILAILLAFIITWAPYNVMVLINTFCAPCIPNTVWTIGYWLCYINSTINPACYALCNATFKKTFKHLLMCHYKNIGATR

human M3, sequence (P20309 whole entry): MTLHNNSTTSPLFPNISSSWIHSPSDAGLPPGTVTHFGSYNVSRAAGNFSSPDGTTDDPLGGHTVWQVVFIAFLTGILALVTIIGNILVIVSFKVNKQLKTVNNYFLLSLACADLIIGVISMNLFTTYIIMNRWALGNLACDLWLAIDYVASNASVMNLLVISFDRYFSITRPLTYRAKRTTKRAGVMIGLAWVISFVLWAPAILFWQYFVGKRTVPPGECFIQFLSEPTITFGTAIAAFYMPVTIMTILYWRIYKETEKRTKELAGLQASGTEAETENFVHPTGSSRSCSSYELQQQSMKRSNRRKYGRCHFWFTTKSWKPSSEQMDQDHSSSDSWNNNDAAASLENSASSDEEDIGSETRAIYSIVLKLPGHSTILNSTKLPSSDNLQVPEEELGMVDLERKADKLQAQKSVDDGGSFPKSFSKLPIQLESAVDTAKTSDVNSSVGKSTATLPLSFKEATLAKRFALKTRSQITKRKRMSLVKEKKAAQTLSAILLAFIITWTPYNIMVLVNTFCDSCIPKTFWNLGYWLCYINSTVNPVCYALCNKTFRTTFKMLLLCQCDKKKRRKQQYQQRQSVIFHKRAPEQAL
rM3, sequence (P08483 whole entry): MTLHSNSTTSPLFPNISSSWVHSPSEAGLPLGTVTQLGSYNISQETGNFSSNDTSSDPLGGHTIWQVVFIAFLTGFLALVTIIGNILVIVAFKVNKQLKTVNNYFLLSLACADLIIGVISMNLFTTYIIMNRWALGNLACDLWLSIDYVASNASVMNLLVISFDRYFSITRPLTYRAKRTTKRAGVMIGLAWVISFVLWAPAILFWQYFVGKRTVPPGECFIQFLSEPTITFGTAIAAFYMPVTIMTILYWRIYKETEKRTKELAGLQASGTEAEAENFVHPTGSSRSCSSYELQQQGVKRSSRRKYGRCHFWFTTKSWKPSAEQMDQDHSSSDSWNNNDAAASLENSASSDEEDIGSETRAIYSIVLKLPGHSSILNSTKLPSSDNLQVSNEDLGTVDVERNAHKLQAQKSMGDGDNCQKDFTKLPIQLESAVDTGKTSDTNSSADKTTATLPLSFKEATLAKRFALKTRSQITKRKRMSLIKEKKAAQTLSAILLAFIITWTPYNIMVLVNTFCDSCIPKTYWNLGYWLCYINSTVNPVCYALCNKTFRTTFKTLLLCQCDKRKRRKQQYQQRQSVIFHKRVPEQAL

| Structure (SMILES) | IC50 [1] | IC50 [2] | IC50 [3] | IC50 [4] | IC50 [5] | inhibition in radioligand binding panel [6] | IC50 [7] | IC50 [8] | IC50 [9] |
| --- | --- | --- | --- | --- | --- | --- | --- | --- | --- |
| O=C(c1ccc(F)c(F)c1)N1CCN2C(=O)c3ccccc3[C@@]12c1ccc(Cl)cc1 [compound 5] | > 30 µM | > 30 µM | > 30 µM | > 30 µM | – | – | – | – | – |
| CC(=O)c1cccc(OCc2cc(C(=O)N(C)[C@@H](C)c3ccccn3)no2)c1 [(S)-16] | – | – | – | – | > 30 µM | ≤ 50% | > 30 µM | > 30 µM | > 30 µM |
